Data taken from ChEMBL document CHEMBL5727488, “3-indol substituted derivatives, pharmaceutical compositions and methods for use” (2020).

Target: Tryptophan 2,3-dioxygenase (Homo sapiens, UniProt P48775)
Test: Assay for TDO2 enzymatic activity determination: To measure the TDO2 activity, the procedure described in Dolusic et al. J. Med. Chem.; 2011, 54, […] was adapted: the reaction mixture contained (final concentrations) potassium phosphate buffer (50 mM, pH 7.5), ascorbic acid (0.25 M), methylene blue (0.125 μM), catalase (40 units/mL, from bovine liver, Sigma), and human recombinant TDO2 enzyme (prepared as described in Dolusic et al. J. Med. Chem.; 2011, 54, 5320-5334; 0.9 μg) without or with the compounds of the present invention at the indicated concentrations (total volume 112.5 μL). The reaction was initiated by the addition of 37.5 μL of L-Trp (final concentration 1 mM) at room temperature. The reaction was conducted at room temperature during one hour and stopped by the addition of 30 μL of 30% (w/v) trichloroacetic acid.To convert N-formylkynurenine into kynurenine, the reaction mixture was incubated at 65° C. for 30 min. Then 150 μL of the reaction mixture was mixed with 120 μL of 2.5% (w/v) 4-(dimethylamino)-benzaldehyde in acetic acid and incubated for 5 min at room temperature. Kynurenine concentrations were determined by measuring the absorbance at 480 nm. A standard curve was made with pure kynurenine. The TDO activity was measured as described above using ten serial concentrations of the compounds of the present invention. […]

Tryptophan 2,3-dioxygenase, sequence (P48775 whole entry): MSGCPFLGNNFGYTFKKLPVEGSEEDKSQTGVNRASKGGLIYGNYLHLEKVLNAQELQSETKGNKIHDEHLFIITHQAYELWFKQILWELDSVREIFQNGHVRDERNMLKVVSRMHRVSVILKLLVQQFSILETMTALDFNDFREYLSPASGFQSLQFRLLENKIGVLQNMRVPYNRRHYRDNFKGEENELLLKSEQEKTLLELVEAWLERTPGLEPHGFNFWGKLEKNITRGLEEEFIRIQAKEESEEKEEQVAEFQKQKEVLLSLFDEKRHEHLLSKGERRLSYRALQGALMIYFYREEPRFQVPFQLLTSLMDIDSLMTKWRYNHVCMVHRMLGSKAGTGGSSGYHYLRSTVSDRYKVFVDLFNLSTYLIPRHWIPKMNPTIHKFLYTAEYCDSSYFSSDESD

IC50: 840 nM
SMILES: C[C@@H](CO)NS(=O)(=O)c1ccc(-c2c[nH]c3cc(F)ccc23)cc1
